US20250313820A1, “PEPTIDES WITH MULTIVALENT EFFECTS” (In2Cure AB, priority 2021, published 2025)
Like-named read-outs stand apart in the source and are kept apart here.

Columns and labels:
erythrocytes (RBCs) = format: cell-based, human
Experimental: (§1) Fresh venous blood from healthy donors was collected in lepirudine tubes (50 μg mL-1). Then 50 μL of blood were transferred to round-bottom 96-wells plate containing 150 μL of peptides previously diluted in RPMI-1640—GlutaMAX-I without phenol red (Gibco). 1:4 diluted blood was used as control. 50 μL of blood mixed with 150 μl 5% Tween-20 were used as positive control. After 1 h incubation at 37° C. and 5% CO2, the plate was centrifuged at 800 g, 150 μL of each sample were transferred to a flat-bottom 96-wells plate and the absorbance at 450 nm was measured. The percentage of hemolysis was calculated following the formula reported below: […]
To evaluate the hemolytic effect of the peptides on erythrocytes the blood was collected as reported above and centrifuged at 250 g for 10 min. Then plasma was discarded, and red blood cells were washed with 150 mM NaCl in 10 mM Tris pH 7.4 for three times. Next, the pellet was dilute 100 times with saline Tris buffer. 100 μL of this solution were added to round-bottom 96-wells plate containing 100 μL of peptides previously diluted in saline Tris buffer. After 1 h incubation at 37° C. and 5% CO2, the plate was centrifuged and the absorbance at 450 nm was measured, then the percentage of erythrocyte lysis was determined using formula reported above.
(§2) Data shown are mean values±SEM obtained from at least four independent experiments all made in triplicate. For each experiment blood from a different donor was used.

whole blood = format: cell-based, human
Experimental: as §1, §2

[1] = biological target: T1, human neutrophil elastase (HNE) (Homo sapiens, UniProt P08246); format: in vitro ADME
T1 construct: purchased Calbiochem, Merk KGaA, Darmstadt, Germany
T1 sequence (P08246 30-267): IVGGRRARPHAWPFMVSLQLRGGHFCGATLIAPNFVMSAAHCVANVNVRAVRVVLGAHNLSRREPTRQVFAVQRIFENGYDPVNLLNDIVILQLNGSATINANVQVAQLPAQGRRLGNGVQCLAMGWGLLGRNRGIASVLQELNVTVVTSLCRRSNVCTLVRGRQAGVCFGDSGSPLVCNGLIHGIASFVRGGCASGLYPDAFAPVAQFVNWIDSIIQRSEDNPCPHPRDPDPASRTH
Experimental: (§7) Peptides were resuspended in endotoxin free water at concentration of 1 mM. […] All digestions were performed in three independent experiments.

[2] = biological target: T2, P. aeruginosa elastase (PE) (Pseudomonas aeruginosa, UniProt P14756); format: in vitro ADME; conditions: SDS-PAGE, digestion 0-18 h
T2 construct: purchased Calbiochem, Merk KGaA, Darmstadt, Germany
Experimental: All digestions were performed in three independent experiments.
Two μg of the peptide from each condition were loaded on 10-20% Novex Tricine pre-cast gel from Invitrogen (USA). The run was performed at 100 V for 100 min. The gel was stained by using Coomassie Brilliant blue (Invitrogen, USA). The image has been acquired with a Gel Doc Imager (Bio-Rad Laboratories, USA). Samples from three independent digestions were analysed.

trypsin = biological target: T3, trypsin (Sus scrofa, UniProt P00761); format: in vitro ADME
T3 construct: purchased Promega, Madison, WI, USA
Experimental: as §7

[3] = test system: proteases (HNE, PE, V8, trypsin); assay: Proteolysis in vitro, fragments by LC-MS/MS
Experimental: as §7

[4] = test system: release of TNF-α in LPS stimulated blood; assay: Whole blood assay with cytokine ELISA: TNF-α; format: cell-based; conditions: 25% human blood, 100 ng mL^−1 E. coli LPS, 24 h; read-out: Anti-inflammatory activity: Peptide concentration that reduces by 50% the release of TNF-α in LPS stimulated blood
Experimental: (§3) Fresh venous blood was collected in the presence of lepirudin (50 μg mL^−1) from healthy donors. […] After 24 h incubation at 37° C. in 5% CO2, the plate was centrifuged for 5 min at 1000 g and then the supernatants were collected and stored at −80° C. before analysis. The experiment was performed at least 4 times by using blood from different donors each time. To evaluate the healing properties of the peptides, the blood was stimulated with 100 ng mL^−1 LPS and after 30 min incubation at 37° C. was treated with increasing doses of four peptides. […] Then the blood was stimulated with 100 ng mL^−1 of LPS.
(§4) Plasma obtained from blood experiment was used to evaluate cytokine release. Human inflammation DuoSet® ELISA Kit (R&D Systems) specific for TNF-α and IL-1β was used according to the manufacturer's instructions. Absorbance was measured at a wavelength of 450 nm. Data shown are mean values±SEM obtained from at least four independent experiments all performed in duplicate.
(§5) For each experiment blood from a different donor was used.
(§6) Plasma obtained from blood experiments was used to evaluate cytokine release. […] Absorbance was measured at a wavelength of 450 nm. […]
as §6

[5] = test system: cytokines released from human blood stimulated with E. coli LPS; assay: Whole blood assay, cytokines overall (TNF-α and IL-1β); format: cell-based; conditions: 25% blood, 100 ng mL^−1 LPS, peptide added before or together with LPS, 24 h
Experimental: as §3, §4, §5, §6, §6

T3 sequence (P00761 9-231): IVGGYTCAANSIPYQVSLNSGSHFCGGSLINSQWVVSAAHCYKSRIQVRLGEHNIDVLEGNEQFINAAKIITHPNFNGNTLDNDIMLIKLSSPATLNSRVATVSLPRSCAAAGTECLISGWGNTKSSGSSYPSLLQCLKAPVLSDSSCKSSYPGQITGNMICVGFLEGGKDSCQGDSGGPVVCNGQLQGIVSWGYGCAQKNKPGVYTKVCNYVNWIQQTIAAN
T2 sequence (P14756 198-498): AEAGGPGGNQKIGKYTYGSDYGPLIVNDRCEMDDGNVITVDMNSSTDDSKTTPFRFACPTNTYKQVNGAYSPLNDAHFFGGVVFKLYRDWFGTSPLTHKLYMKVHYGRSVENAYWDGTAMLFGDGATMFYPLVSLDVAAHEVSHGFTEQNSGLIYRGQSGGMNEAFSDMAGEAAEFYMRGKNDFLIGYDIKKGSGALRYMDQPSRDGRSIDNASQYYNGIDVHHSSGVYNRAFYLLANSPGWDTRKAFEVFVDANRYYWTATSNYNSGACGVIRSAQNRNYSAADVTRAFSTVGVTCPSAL

CC[C@H](C)[C@H](NC(=O)[C@H](Cc1c[nH]c2ccccc12)NC(=O)[C@H](CCCCN)NC(=O)[C@H](CCCCN)NC(=O)[C@H](CC(C)C)NC(=O)[C@H](CCCNC(=N)N)NC(=O)[C@H](Cc1ccccc1)NC(=O)[C@@H](NC(=O)[C@@H](N)Cc1c[nH]cn1)C(C)C)C(=O)N[C@@]1(C)CCCC=CCCC[C@@](C)(C(=O)N[C@@H](CCC(N)=O)C(=O)N[C@@H](Cc2ccccc2)C(=O)NCC(=O)N[C@@H](CCC(=O)O)C(=O)O)NC(=O)[C@H]([C@@H](C)CC)NC(=O)[C@H](C(C)C)NC(=O)[C@H](CCCCN)NC1=O [sHVF18, HVFRLKKWIXKVIXQFGE]
hemolytic activity, RBCs or whole blood (heatmaps FIG. 4, FIG. 20a), in words (erythrocytes (RBCs)): lower hemolytic activity if compared with sGKY25
Hemolytic activity, lysed RBCs (erythrocytes (RBCs); 1 h): 35.4 ± 5.9%
hemolytic activity in whole blood, in words (whole blood): significantly lower hemolytic activity
Hemolytic activity, lysed RBCs in whole blood (whole blood; 1 h): <1%
stability in the presence of HNE enhanced up to (time) [1]: up to 18 h
stability in the presence of PE enhanced up to (time) [2]: up to 18 h
intact peptide still detected after trypsin digestion (time) (trypsin): ≥ 18 h
protection to proteolysis / fragments released (LC-MS/MS) [3]: complete protection to proteolysis

cyclo[GKYGE]YTHVFRLKKWIXKVIXQFGE [2sGKY25]
IC50 [4]: 8 ± 2.3 µM
anti-inflammatory activity in LPS-stimulated blood (TNF-α and IL-1β release), in words [5]: better suppression of LPS-induced TNF-α and IL-1β release than GKY25
Hemolytic activity, lysed RBCs (erythrocytes (RBCs)): 49.1 ± 13.6%
Hemolytic activity, lysed RBCs in whole blood (whole blood): <1%
hemolytic activity in whole blood, in words (whole blood): slightly lower than for sGKY25, but definitely higher than for sHVF18
